In the assay the target is T1, α4β1 integrin (Homo sapiens, UniProt P05556+P13612).
T1 construct: Ramos cells fluorescently labeled with calcein; endogenous in cells; host or cells: Ramos cells
Description: Inhibition of adhesion of calcein-labeled Ramos cells to CS1 (fibronectin) peptide-conjugated ovalbumin. The conditions noted are these: Table 1; for inhibition at 100 µM: Ramos, compound at a concentration of 100 μM, read-out: % A (percent inhibition of cell adhesion); for pIC50: dose required to give 50% inhibition, Ramos cell adhesion to CS1-ovalbumin, 30 minutes at 37° C. It counts as cell-based. The protocol:
The ability of compounds of the present invention to inhibit binding is described in detail hereinafter in the Examples by a procedure in which a 26-amino acid peptide containing the CS1 sequence of fibroncctin with an N-terminal Cys was coupled to maleimide activated ovalbumin. Ovalbumin and CS1 conjugated ovalbumin were coated onto 96-well polystyrene plates at 5 μg/ml in TBS (50 mM Tris, pH 7.5; 150 mM NaCl) at 4° C. for 16 hours. The plates were washed three times with TBS and blocked with TBS containing 3% BSA at room temperature for 4 hours. Blocked plates were washed three times in binding buffer (TBS; 1 mM MgCl2; 1 mM CaCl2; 1 mM MnCl2) prior to assay. Ramos cells fluorescently labeled with calcein AMC-3099 were resuspended in binding buffer (10^7 cells/ml) and diluted 1:2 with same buffer with or without compound. The cells were added immediately to the wells (2.5×10^5 cells/well) and incubated for 30 minutes at 37° C. Following three washes with binding buffer, adherent cells were lysed and quantitated using a fluorometer.
IC50 is defined as the dose required to give 50% inhibition. The lower the IC50 value and the greater the percentage of inhibition, the more efficient the compound is at prevention of cell adhesion. A stands for inhibition in Table 1, and the percent inhibition indicates the inhibition of cell adhesion when compound is included in the assay at a concentration of 100 μM.

Each structure is given as a SMILES string. pIC50: −log10 of the molar value.

T1 sequence (P13612 34-1032): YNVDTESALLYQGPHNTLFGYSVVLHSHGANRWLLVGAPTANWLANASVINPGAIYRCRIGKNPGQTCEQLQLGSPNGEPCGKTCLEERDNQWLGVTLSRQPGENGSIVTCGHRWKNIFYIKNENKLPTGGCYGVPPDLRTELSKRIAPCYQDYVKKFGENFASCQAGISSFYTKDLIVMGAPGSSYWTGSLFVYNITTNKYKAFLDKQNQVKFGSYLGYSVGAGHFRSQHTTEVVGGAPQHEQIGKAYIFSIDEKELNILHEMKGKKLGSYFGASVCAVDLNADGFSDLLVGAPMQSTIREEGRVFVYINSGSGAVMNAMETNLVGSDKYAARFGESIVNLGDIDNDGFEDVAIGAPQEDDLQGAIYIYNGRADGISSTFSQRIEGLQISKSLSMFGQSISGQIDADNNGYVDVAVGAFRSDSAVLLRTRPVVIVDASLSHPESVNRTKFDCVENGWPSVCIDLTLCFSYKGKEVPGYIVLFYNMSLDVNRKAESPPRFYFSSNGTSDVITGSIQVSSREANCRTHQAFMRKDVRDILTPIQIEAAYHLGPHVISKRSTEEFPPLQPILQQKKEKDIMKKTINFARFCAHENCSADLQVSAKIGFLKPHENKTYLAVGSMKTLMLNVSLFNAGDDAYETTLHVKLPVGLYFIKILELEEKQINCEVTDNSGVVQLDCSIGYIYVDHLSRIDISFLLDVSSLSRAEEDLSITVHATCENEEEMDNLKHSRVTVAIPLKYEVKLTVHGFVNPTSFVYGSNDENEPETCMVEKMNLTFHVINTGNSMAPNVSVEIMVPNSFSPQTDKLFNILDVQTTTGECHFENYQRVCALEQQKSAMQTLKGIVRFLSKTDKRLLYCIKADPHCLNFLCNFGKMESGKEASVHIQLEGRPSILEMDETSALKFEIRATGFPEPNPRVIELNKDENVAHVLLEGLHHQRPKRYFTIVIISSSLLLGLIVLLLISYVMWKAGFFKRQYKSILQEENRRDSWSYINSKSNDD
T1 sequence (P05556 21-798): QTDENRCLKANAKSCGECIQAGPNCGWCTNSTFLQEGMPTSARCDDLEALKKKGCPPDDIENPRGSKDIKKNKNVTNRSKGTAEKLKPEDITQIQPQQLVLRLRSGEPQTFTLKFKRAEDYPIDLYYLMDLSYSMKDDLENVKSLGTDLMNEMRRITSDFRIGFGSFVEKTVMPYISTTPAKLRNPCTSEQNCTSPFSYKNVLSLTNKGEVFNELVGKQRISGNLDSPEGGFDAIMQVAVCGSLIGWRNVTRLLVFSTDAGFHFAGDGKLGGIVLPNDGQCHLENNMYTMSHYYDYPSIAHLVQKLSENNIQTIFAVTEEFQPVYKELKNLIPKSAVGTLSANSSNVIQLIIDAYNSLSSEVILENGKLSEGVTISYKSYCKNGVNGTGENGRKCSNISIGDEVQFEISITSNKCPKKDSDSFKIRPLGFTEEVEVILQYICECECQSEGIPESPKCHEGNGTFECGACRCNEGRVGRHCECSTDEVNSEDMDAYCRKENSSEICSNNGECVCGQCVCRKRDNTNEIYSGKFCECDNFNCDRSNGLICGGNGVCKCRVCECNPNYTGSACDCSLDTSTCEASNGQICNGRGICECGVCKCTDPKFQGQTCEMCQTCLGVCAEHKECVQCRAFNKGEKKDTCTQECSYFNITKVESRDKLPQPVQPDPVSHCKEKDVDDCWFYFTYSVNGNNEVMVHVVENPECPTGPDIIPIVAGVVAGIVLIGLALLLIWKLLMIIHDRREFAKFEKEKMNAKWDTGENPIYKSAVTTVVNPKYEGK

`COc1ccc(CNC(=O)[C@@H](CC(C)C)NC(=O)NC(CC(=O)O)c2ccc3c(c2)OCO3)cc1` (stereo partly drawn) [3-(1,3-benzodioxol-5-yl)-3-({[((1R)-1-{[(4-methoxybenzyl)amino]carbonyl}-3-methylbutyl)amino]carbonyl}amino)propanoic acid]: the inhibition at 100 µM was 66% and the pIC50 was 4.35.

In the case of `COc1ccc(CNC(=O)[C@H](CC(C)C)NC(=O)NC(CC(=O)O)c2ccc3c(c2)OCO3)cc1` (stereo partly drawn) [3-(1,3-benzodioxol-5-yl)-3-({[((1S)-1-{[(4-methoxybenzyl)amino]carbonyl}-3-methylbutyl)amino]carbonyl}amino)propanoic acid], the inhibition at 100 µM was 100% and the pIC50 is 6.30.

Take `CC(C)[C@H](CSCc1ccccc1)NC(=O)NC(CC(=O)O)c1ccc2c(c1)OCO2` (stereo partly drawn) [3-(1,3-benzodioxol-5-yl)-3-{[({(1R)-1-[(benzylsulfanyl)methyl]-2-methylpropyl}amino)carbonyl]amino}propanoic acid]: the inhibition at 100 µM is 83% and the pIC50 is 4.40.

As to `CC(C)[C@@H](CSCc1ccccc1)NC(=O)NC(CC(=O)O)c1ccc2c(c1)OCO2` (stereo partly drawn) [3-(1,3-benzodioxol-5-yl)-3-{[({(1S)-1-[(benzylsulfanyl)methyl]-2-methylpropyl}amino)carbonyl]amino}propanoic acid], the inhibition at 100 µM is 100% and the negative-log IC50 (pIC50) was 5.00.

`CC(C)[C@@H](CS(=O)(=O)Cc1ccccc1)NC(=O)NC(CC(=O)O)c1ccc2c(c1)OCO2` (stereo partly drawn) [3-(1,3-benzodioxol-5-yl)-3-{[({(1S)-1-[(benzylsulfonyl)methyl]-2-methylpropyl}amino)carbonyl]amino}propanoic acid]: the inhibition at 100 µM is 92% and the pIC50 was 4.46.

For the compound `CC(C)[C@@H](CSc1ccccc1)NC(=O)NC(CC(=O)O)c1ccc2c(c1)OCO2` (stereo partly drawn) [3-(1,3-benzodioxol-5-yl)-3-{[({(1S)-2-methyl-1-[(phenylsulfanyl)methyl]propyl}amino)carbonyl]amino}propanoic acid], the inhibition at 100 µM was 99% and the pIC50 was 5.30.

As for `Cc1ccccc1NC(=O)Nc1ccc(CNC(=O)[C@H](CC(C)C)NC(=O)NC(CC(=O)O)c2ccc3c(c2)OCO3)cc1` (stereo partly drawn) [3-(1,3-benzodioxol-5-yl)-3-{[({(1S)-3-methyl-1-[({4-[(2-toluidinocarbonyl)amino]benzyl}amino)carbonyl]butyl}amino)carbonyl]amino}propanoic acid], the inhibition at 100 µM was 100% and the pIC50 was 7.70.

For the compound `CSCC[C@@H](CSc1ccccc1)NC(=O)NCCC(=O)O` [3-{[({(1S)-3-(methylsulfanyl)-1-[(phenylsulfanyl)methyl]propyl}amino)carbonyl]amino}propanoic acid], the inhibition at 100 µM is 96% and the pIC50 is 4.60.

On to `O=C(O)C[C@H](NC(=O)N[C@@H](CCCCNC(=O)OCc1ccccc1)C(=O)NCc1cccs1)C(=O)O` [(2S)-2-({[((1S)-5-{[(benzyloxy)carbonyl]amino}-1-{[(2-thienylmethyl)amino]carbonyl}pentyl)amino]carbonyl}amino)butanedioic acid], for which the inhibition at 100 µM is 89% and the pIC50 is 4.35.

`CC(C)[C@@H](CSc1ccccc1)NC(=O)N[C@H](CC(=O)O)c1ccc2c(c1)OCO2` [(3R)-3-(1,3-benzodioxol-5-yl)-3-{[({(1S)-2-methyl-1-[(phenylsulfanyl)methyl]propyl}amino)carbonyl]amino}propanoic acid]: the inhibition at 100 µM was 83% and the pIC50 is 4.46.

As to `O=C(O)C[C@H](NC(=O)N[C@H](CSc1ccccc1)CS(=O)(=O)Cc1ccccc1)c1ccc2c(c1)OCO2` [(3S)-3-(1,3-benzodioxol-5-yl)-3-(((((1R)-2-(benzylsulfonyl)-1-((phenylsulfanyl)methyl)ethyl)amino)carbonyl)amino)propanoic acid], the inhibition at 100 µM was 100% and the pIC50 was 6.00.

For the compound `CC(C)[C@@H](CSc1ccccc1)NC(=O)N[C@@H](CC(=O)O)c1ccc2c(c1)OCO2` [(3S)-3-(1,3-benzodioxol-5-yl)-3-(((((1S)-2-methyl-1-((phenylsulfanyl)methyl)propyl)amino)carbonyl)amino)propanoic acid], the inhibition at 100 µM is 100% and the pIC50 was 5.60.

For the compound `CSCC[C@@H](CSc1ccccc1)NC(=O)N[C@@H](CC(=O)O)c1ccc2c(c1)OCO2` [(3S)-3-(1,3-benzodioxol-5-yl)-3-(((((1S)-3-(methylsulfanyl)-1-((phenylsulfanyl)methyl)propyl)amino)carbonyl)amino)propanoic acid], the inhibition at 100 µM was 100% and the negative logarithm of the IC50 (pIC50) was 6.52.

Consider `CC(C)[C@@H](CSCCCc1ccccc1)NC(=O)N[C@@H](CC(=O)O)c1ccc2c(c1)OCO2` [(3S)-3-(1,3-benzodioxol-5-yl)-3-({[((1S)-2-methyl-1-{[(3-phenylpropyl)sulfanyl]methyl}propyl)amino]carbonyl}amino)propanoic acid], for which the inhibition at 100 µM was 99% and the pIC50 is 4.70.

For the compound `O=C(O)C[C@H](NC(=O)NCCSc1ccccc1)c1ccc2c(c1)OCO2` [(3S)-3-(1,3-benzodioxol-5-yl)-3-[({[2-(phenylsulfanyl)ethyl]amino}carbonyl)amino]propanoic acid], the inhibition at 100 µM is 100% and the pIC50 is 5.22.

With `CCCSC[C@@H](Cc1ccccc1)NC(=O)N[C@@H](CC(=O)O)c1ccc2c(c1)OCO2` [(3S)-3-(1,3-benzodioxol-5-yl)-3-[({[(1R)-1-benzyl-2-(propylthio)ethyl]amino}carbonyl)amino]propanoic acid], the inhibition at 100 µM was 100% and the pIC50 is 5.70.

With `CCCSC[C@H](NC(=O)N[C@@H](CC(=O)O)c1ccc2c(c1)OCO2)c1ccccc1` [(3S)-3-(1,3-benzodioxol-5-yl)-3-[({[(1R)-1-phenyl-2-(propylthio)ethyl]amino}carbonyl)amino]propanoic acid], the inhibition at 100 µM was 100% and the negative-log IC50 (pIC50) was 4.60.

`CC(C)(C)OC(=O)C[C@H](NC(=O)N[C@@H](CC(=O)O)c1ccc2c(c1)OCO2)c1ccc2c(c1)OCO2` [(3S)-3-(1,3-benzodioxol-5-yl)-3-[({[(1S)-1-(1,3-benzodioxol-5-yl)-3-(tert-butoxy)-3-oxopropyl]amino}carbonyl)amino]propanoic acid]: the inhibition at 100 µM is 100% and the pIC50 was 5.40.

`CSCC[C@@H](CSc1cccc(NS(C)(=O)=O)c1)NC(=O)N[C@@H](CC(=O)O)c1ccc2c(c1)OCO2` [(3S)-3-(1,3-benzodioxol-5-yl)-3-[({[(1S)-1-[({3-[(methylsulfonyl)amino]phenyl}thio)methyl]-3-(methylthio)propyl]amino}carbonyl)amino]propanoic acid]: the inhibition at 100 µM is 100% and the pIC50 was 6.40.

On to `CSCC[C@@H](CSc1ccc(NCc2ccccc2C)cc1)NC(=O)N[C@@H](CC(=O)O)c1ccc2c(c1)OCO2` [(3S)-3-(1,3-benzodioxol-5-yl)-3-[({[(1S)-1-[({4-[(2-methylbenzyl)amino]phenyl}thio)methyl]-3-(methylthio)propyl]amino}carbonyl)amino]propanoic acid], for which the inhibition at 100 µM is 93% and the pIC50 is 5.70.

In the case of `CSCC[C@@H](CSc1ccc(NS(=O)(=O)Cc2ccccc2)cc1)NC(=O)N[C@@H](CC(=O)O)c1ccc2c(c1)OCO2` [(3S)-3-(1,3-benzodioxol-5-yl)-3-[({[(1S)-1-[({4-[(benzylsulfonyl)amino]phenyl}sulfanyl)methyl]-3-(methylsulfanyl)propyl]amino}carbonyl)amino]propanoic acid], the inhibition at 100 µM was 100% and the pIC50 was 6.52.

As to `C[C@@H](CSc1ccccc1)NC(=O)N[C@@H](CC(=O)O)c1ccc2c(c1)OCO2` [(3S)-3-(1,3-benzodioxol-5-yl)-3-[({[(1S)-1-methyl-2-(phenylsulfanyl)ethyl]amino}carbonyl)amino]propanoic acid], the inhibition at 100 µM is 100% and the negative-log IC50 (pIC50) was 5.52.

Consider `CSCC[C@@H](CSc1ccccc1C)NC(=O)N[C@@H](CC(=O)O)c1ccc2c(c1)OCO2` [(3S)-3-(1,3-benzodioxol-5-yl)-3-[({[(1S)-1-{[(2-methylphenyl)sulfanyl]methyl}-3-(methylsulfanyl)propyl]amino}carbonyl)amino]propanoic acid], for which the inhibition at 100 µM is 100% and the pIC50 was 6.52.

With `CSCC[C@@H](CSc1cccc(C)c1)NC(=O)N[C@@H](CC(=O)O)c1ccc2c(c1)OCO2` [(3S)-3-(1,3-benzodioxol-5-yl)-3-[({[(1S)-1-{[(3-methylphenyl)sulfanyl]methyl}-3-(methylsulfanyl)propyl]amino}carbonyl)amino]propanoic acid], the inhibition at 100 µM was 100% and the pIC50 is 6.52.

As for `CSCC[C@@H](CSc1ccc(Cl)cc1)NC(=O)N[C@@H](CC(=O)O)c1ccc2c(c1)OCO2` [(3S)-3-(1,3-benzodioxol-5-yl)-3-[({[(1S)-1-{[(4-chlorophenyl)sulfanyl]methyl}-3-(methylsulfanyl)propyl]amino}carbonyl)amino]propanoic acid], the inhibition at 100 µM was 100% and the pIC50 is 5.52.

Values taken from patent US6262084A, “Compounds that inhibit the binding of integrins to their receptors” (Texas Biotechnology Corporation, priority 1999, dated 2001).
